The source of these data is patent US20160095843A1, “PYRAZOLOPYRROLIDINE DERIVATIVES AND THEIR USE IN THE TREATMENT OF DISEASE” (NOVARTIS AG, priority 2013, published 2016).

As a reminder, the GI50 is the concentration that inhibits growth by half. Higher therefore signals less potent growth inhibition.

One assay deals with MV-4-11 cells. Kind of assay: Cell growth inhibition assay (CellTiter-Glo), MV-4-11. Conditions: Homo sapiens, MV4-11. The class given is cell-based. A digest of the protocol: (§1)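 Leukemia lines grown in their own media were exposed for 4 days at 37° C. to 3-fold serial dilutions from 10 μM (0.1% DMSO). Viability by CellTiter-Glo ATP luminescence, corrected for background and day-0 plate; IC50 and TGI from four-parameter fit against vehicle (100%) and medium (−100%).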
(In general: Cellular ATP, detected with luciferase, serves as a proxy for viable cell number.)

In a further assay the test system is THP-1 cells. Description: Cell growth inhibition assay (CellTiter-Glo), THP-1. The class given is cell-based. The settings on record: Homo sapiens. In short, it runs like this:
as §1

In a further assay the test system is K-562 cells. Description: Cell growth inhibition assay (CellTiter-Glo), K-562. Conditions: for GI50: Homo sapiens, K562. It is filed as cell-based, human. A digest of the protocol: as §1

For `COc1ncc(-n2nc3c(c2C(C)C)C(c2ccc(Cl)cc2)N(c2cc(C)c4nnc(C)n4c2)C3=O)c(OC)n1` (centres unmarked) [Example 67, 4-(4-chlorophenyl)-2-(2,4-dimethoxypyrimidin-5-yl)-5-(3,8-dimethyl-[1,2,4]triazolo-[4,3-a]pyridin-6-yl)-3-isopropyl-4,5-dihydropyrrolo-[3,4-c]pyrazol-6(2H)-one], the GI50 was 8.55 nM with MV-4-11 cells, 20.3 nM in the assay with THP-1 cells and 47.4 nM in the assay on K-562 cells.

For `Cc1nn(C)c2c1C(c1ccc(Cl)cc1)N(c1cc(Cl)c(=O)n(C)c1)C2=O` (centres unmarked) [Example 58, 5-(5-chloro-1-methyl-6-oxo-1,6-dihydropyridin-3-yl)-4-(4-chlorophenyl)-1,3-dimethyl-4,5-dihydropyrrolo[3,4-c]pyrazol-6(1H)-one], the figures for the 50% growth inhibitory concentration (GI50) in the assay on MV-4-11 cells, in the assay on THP-1 cells and with K-562 cells were 94.4 nM, 189 nM and 1140 nM, respectively.

As for `Cc1nn(C(C)C)c2c1[C@@H](c1ccc(Cl)cc1)N(c1cc(C)c(=O)n(C)c1)C2=O` [Example 104, (R)-4-(4-chlorophenyl)-5-(1,5-dimethyl-6-oxo-1,6-dihydropyridin-3-yl)-1-isopropyl-3-methyl-4,5-dihydropyrrolo[3,4-c]pyrazol-6(1H)-one], the GI50 with MV-4-11 cells was found to be 9.97 nM; in the assay on THP-1 cells, 26.2 nM; in the assay on K-562 cells it was 57.6 nM. Also, the IC (TGI) with K-562 cells is greater than 10000 nM.

For `CCn1nc2c(c1C)C(c1ccc(Cl)cc1)N(c1cc(C)c3nnc(C)n3c1)C2=O` (centres unmarked) [Example 115, 4-(4-chlorophenyl)-5-(3,8-dimethyl-[1,2,4]triazolo[4,3-a]pyridin-6-yl)-2-ethyl-3-methyl-4,5-dihydropyrrolo-[3,4-c]pyrazol-6(2H)-one], the 50% growth inhibitory concentration (GI50) came to 22.4 nM in the assay with MV-4-11 cells, 34.8 nM with THP-1 cells and 142 nM in the assay on K-562 cells.

As for `CNC(=O)n1nc2c(c1C)C(c1ccc(Cl)cc1)N(c1cc(C)c(=O)n(C)c1)C2=O` (centres unmarked) [Example 144, 4-(4-chlorophenyl)-5-(1,5-dimethyl-6-oxo-1,6-dihydropyridin-3-yl)-N,3-dimethyl-6-oxo-5,6-dihydropyrrolo-[3,4-c]pyrazole-2(4H)-carboxamide], the 50% growth inhibitory concentration (GI50) with MV-4-11 cells was 59.8 nM; with THP-1 cells, 214 nM; in the assay on K-562 cells, 432 nM.

Turning to `Cc1cc(N2C(=O)c3nn(C)c(O)c3C2c2ccc(Cl)cc2)cn(C)c1=O` (centres unmarked) [Example 73, 4-(4-chlorophenyl)-5-(1,5-dimethyl-6-oxo-1,6-dihydropyridin-3-yl)-3-hydroxy-2-methyl-4,5-dihydropyrrolo[3,4-c]pyrazol-6(2H)-one], the GI50 in the assay with MV-4-11 cells was 3020 nM; in the assay with THP-1 cells, greater than 10000 nM; in the assay on K-562 cells, greater than 10000 nM.

Regarding `Cc1nn(C2CC2)c2c1[C@@H](c1ccc(Cl)cc1)N(c1cc(C)c3nnc(C)n3n1)C2=O` [Example 122, (R)-4-(4-chlorophenyl)-1-cyclopropyl-5-(3,8-dimethyl-[1,2,4]triazolo[4,3-b]-pyridazin-6-yl)-3-methyl-4,5-dihydropyrrolo[3,4-c]pyrazol-6(1H)-one], the concentration for 50% growth inhibition (GI50) in the assay with MV-4-11 cells is 3.41 nM; in the assay on THP-1 cells, 4.32 nM; with K-562 cells, 24.1 nM.

As for `CCc1nn(C2CC2)c2c1C(c1ccc(Cl)cc1)N(c1cc(C)c(=O)n(C)c1)C2=O` (centres unmarked) [Example 69, 4-(4-chlorophenyl)-1-cyclopropyl-5-(1,5-dimethyl-6-oxo-1,6-dihydropyridin-3-yl)-3-ethyl-4,5-dihydropyrrolo-[3,4-c]pyrazol-6(1H)-one], the GI50 is 27.4 nM in the assay on MV-4-11 cells, 44.2 nM with THP-1 cells and 135 nM with K-562 cells.

As for `Cc1nn(C2CC2)c2c1[C@@H](c1ccc(Cl)cc1)N(c1cc(Cl)c(=O)n(C)c1)C2=O` [Example 51, (R)-5-(5-chloro-1-methyl-6-oxo-1,6-dihydropyridin-3-yl)-4-(4-chlorophenyl)-1-cyclopropyl-3-methyl-4,5-dihydropyrrolo-[3,4-c]pyrazol-6(1H)-one], the results for the concentration for 50% growth inhibition (GI50) in the assay on MV-4-11 cells, with THP-1 cells and in the assay with K-562 cells were 51.9 nM, 72.5 nM and 318 nM, respectively.

For `Cc1cc(N2C(=O)c3nn(C(=O)N(C)C)c(C)c3[C@H]2c2ccc(Cl)cc2)cn2c(C)nnc12` [Example 150, (R)-4-(4-chlorophenyl)-5-(3,8-dimethyl-[1,2,4]triazolo[4,3-a]pyridin-6-yl)-N,N,3-trimethyl-6-oxo-5,6-dihydropyrrolo-[3,4-c]pyrazole-2(4H)-carboxamide], the GI50 in the assay on MV-4-11 cells was 55.5 nM; in the assay on THP-1 cells, 101 nM; in the assay with K-562 cells, 406 nM.

In the case of `Cc1ncccc1-n1nc2c(c1C)C(c1ccc(Cl)cc1)N(c1cc(C)c(=O)n(C)c1)C2=O` (centres unmarked) [Example 81, 4-(4-chlorophenyl)-5-(1,5-dimethyl-6-oxo-1,6-dihydropyridin-3-yl)-3-methyl-2-(2-methylpyridin-3-yl)-4,5-dihydropyrrolo-[3,4-c]pyrazol-6(2H)-one], the concentration for 50% growth inhibition (GI50) in the assay on MV-4-11 cells is 95.6 nM; with THP-1 cells, 261 nM; in the assay on K-562 cells it was 883 nM.

For `Cc1nn(C2CC2)c2c1C(c1ccc(Cl)cc1F)N(c1cc(C)c3nnc(C)n3c1)C2=O` (centres unmarked) [Example 178, 4-(4-chloro-2-fluorophenyl)-1-cyclopropyl-5-(3,8-dimethyl-[1,2,4]triazolo[4,3-a]pyridin-6-yl)-3-methyl-4,5-dihydropyrrolo[3,4-c]pyrazol-6(1H)-one], the GI50 with MV-4-11 cells was determined as 28.2 nM; in the assay with THP-1 cells, 42.5 nM; in the assay on K-562 cells it was 137 nM.

As for `COc1ncc(-n2nc3c(c2C(C)C)C(c2ccc(Cl)cc2)N(c2cc(C)c4onc(C)c4c2)C3=O)c(OC)n1` (centres unmarked) [Example 46, 4-(4-chlorophenyl)-2-(2,4-dimethoxypyrimidin-5-yl)-5-(3,7-dimethylbenzo[d]-isoxazol-5-yl)-3-isopropyl-4,5-dihydropyrrolo-[3,4-c]pyrazol-6(2H)-one], the GI50 amounted to 115 nM in the assay with MV-4-11 cells, 177 nM in the assay with THP-1 cells and 370 nM with K-562 cells. In the assay on K-562 cells, this compound displayed an IC (TGI) greater than 10000 nM.

As to `Cc1nn(C2CCC2)c2c1C(c1ccc(Cl)cc1)N(c1cc(C)c(=O)n(C)c1)C2=O` (centres unmarked) [Example 94, 4-(4-chlorophenyl)-1-cyclobutyl-5-(1,5-dimethyl-6-oxo-1,6-dihydropyridin-3-yl)-3-methyl-4,5-dihydropyrrolo-[3,4-c]pyrazol-6(1H)-one], the GI50 with MV-4-11 cells turned out to be 19.5 nM; in the assay on THP-1 cells it was 34.4 nM; with K-562 cells, 96.9 nM.

Regarding `CCc1nn(C2CC2)c2c1[C@@H](c1ccc(Cl)cc1)N(c1cc(C)c3nnc(C)n3c1)C2=O` [Example 107, (R)-4-(4-chlorophenyl)-1-cyclopropyl-5-(3,8-dimethyl-[1,2,4]triazolo[4,3-a]pyridin-6-yl)-3-ethyl-4,5-dihydropyrrolo-[3,4-c]pyrazol-6(1H)-one], the GI50 in the assay with MV-4-11 cells stood at 7.28 nM; in the assay with THP-1 cells it was 8.18 nM; in the assay with K-562 cells, 37.9 nM. This compound came in with an IC (TGI) with K-562 cells greater than 10000 nM.

Consider `Cc1nn(C2CC2)c2c1[C@@H](c1ccc(Cl)cc1)N(c1cc(C)c3nnc(C)n3c1)C2=O` [Example 119, (R)-4-(4-chlorophenyl)-1-cyclopropyl-5-(3,8-dimethyl-[1,2,4]triazolo[4,3-a]pyridin-6-yl)-3-methyl-4,5-dihydropyrrolo-[3,4-c]pyrazol-6(1H)-one], for which the concentration for 50% growth inhibition (GI50) in the assay on MV-4-11 cells was found to be 6.15 nM; in the assay on THP-1 cells, 9.45 nM; in the assay with K-562 cells, 62 nM. The IC (TGI) in the assay with K-562 cells was greater than 10000 nM.

In the case of `Cc1cc(N2C(=O)c3nn(C4CNC4)c(C)c3C2c2ccc(Cl)cc2)cn2c(C)nnc12` (centres unmarked) [Example 152, 2-(azetidin-3-yl)-4-(4-chlorophenyl)-5-(3,8-dimethyl-[1,2,4]triazolo[4,3-a]pyridin-6-yl)-3-methyl-4,5-dihydropyrrolo[3,4-c]pyrazol-6(2H)-one], the GI50 with MV-4-11 cells was found to be 438 nM; in the assay on THP-1 cells, 2600 nM; in the assay with K-562 cells, 4330 nM.

For the compound `CCn1nc(C)c2c1C(=O)N(c1cc(C)c3nnc(C)n3c1)C2c1ccc(Cl)cc1F` (centres unmarked) [Example 185, 4-(4-chloro-2-fluorophenyl)-5-(3,8-dimethyl-[1,2,4]triazolo[4,3-a]pyridin-6-yl)-1-ethyl-3-methyl-4,5-dihydropyrrolo-[3,4-c]pyrazol-6(1H)-one], the figures for the concentration for 50% growth inhibition (GI50) with MV-4-11 cells, in the assay with THP-1 cells and in the assay with K-562 cells were 24.2 nM, 36.8 nM and 136 nM, respectively.

Consider `CCn1nc(C)c2c1C(=O)N(c1cc(C)c3nnc(C)n3c1)C2c1ccc(F)cc1F` (centres unmarked) [Example 181, 4-(2,4-difluorophenyl)-5-(3,8-dimethyl-[1,2,4]triazolo[4,3-a]pyridin-6-yl)-1-ethyl-3-methyl-4,5-dihydropyrrolo[3,4-c]pyrazol-6(1H)-one], for which the 50% growth inhibitory concentration (GI50) was determined as 47.1 nM in the assay on MV-4-11 cells, 51.9 nM in the assay with THP-1 cells and 160 nM in the assay with K-562 cells.

`Cc1nn(-c2ccnn2C)c2c1C(c1ccc(Cl)cc1)N(c1cc(C)c3nnc(C)n3n1)C2=O` (centres unmarked) [Example 114, 4-(4-chlorophenyl)-5-(3,8-dimethyl-[1,2,4]triazolo[4,3-b]pyridazin-6-yl)-3-methyl-1-(1-methyl-1H-pyrazol-5-yl)-4,5-dihydropyrrolo-[3,4-c]pyrazol-6(1H)-one]: the concentration for 50% growth inhibition (GI50) in the assay on MV-4-11 cells was determined as 20.4 nM; in the assay on THP-1 cells, 30.4 nM; with K-562 cells, 187 nM.

Take `Cc1nn(-c2ccnn2C)c2c1[C@@H](c1ccc(Cl)cc1)N(c1cc(C)c(=O)n(C)c1)C2=O` [Example 120, (R)-4-(4-chlorophenyl)-5-(1,5-dimethyl-6-oxo-1,6-dihydropyridin-3-yl)-3-methyl-1-(1-methyl-1H-pyrazol-5-yl)-4,5-dihydropyrrolo-[3,4-c]pyrazol-6(1H)-one]: the GI50 worked out at 55.7 nM with MV-4-11 cells, 79.2 nM in the assay with THP-1 cells and 402 nM in the assay with K-562 cells. Moreover, in the assay with K-562 cells, the IC (TGI) is greater than 10000 nM.

On to `COCc1nn(C2CC2)c2c1[C@@H](c1ccc(Cl)cc1)N(c1cc(C)c(=O)n(C)c1)C2=O` [Example 162, (R)-4-(4-chlorophenyl)-1-cyclopropyl-5-(1,5-dimethyl-6-oxo-1,6-dihydropyridin-3-yl)-3-(methoxymethyl)-4,5-dihydropyrrolo[3,4-c]pyrazol-6(1H)-one], for which the GI50 stood at 41.8 nM in the assay with MV-4-11 cells, 54.6 nM with THP-1 cells and 244 nM in the assay with K-562 cells.
